Like-named read-outs stand apart in the source and are kept apart here.
Experiments:
Experiment in all cases: biochemical
Assay type in all cases: binding
468 kinases [1] = target: 468 kinases (Homo sapiens, UniProt P22607); settings: FGFR3; read-out: % Inhibition @ 100 nM
468 kinases [2] = target: 468 kinases (Homo sapiens, UniProt P42336, E545A); settings: PIK3CA(E545A); read-out: % Inhibition @ 100 nM
468 kinases [3] = target: 468 kinases (Homo sapiens, UniProt Q96D53); settings: ADCK4; read-out: % Inhibition @ 100 nM
468 kinases [4] = target: 468 kinases (Homo sapiens, UniProt P37173); settings: TGFBR2; read-out: % Inhibition @ 100 nM
468 kinases [5] = target: 468 kinases (Homo sapiens, UniProt Q8IVW4); settings: CDKL3; read-out: % Inhibition @ 100 nM
468 kinases [6] = target: 468 kinases (Homo sapiens, UniProt O15197); settings: EPHB6; read-out: % Inhibition @ 100 nM
468 kinases [7] = target: 468 kinases (Homo sapiens, UniProt Q8N4C8); settings: MINK; read-out: % Inhibition @ 100 nM
468 kinases [8] = target: 468 kinases (Homo sapiens, UniProt P04629); settings: TRKA; read-out: % Inhibition @ 100 nM
468 kinases [9] = target: 468 kinases (Homo sapiens, UniProt Q9HAZ1); settings: CLK4; read-out: % Inhibition @ 100 nM
468 kinases [10] = target: 468 kinases (Homo sapiens, UniProt Q16620); settings: TRKB; read-out: % Inhibition @ 100 nM
468 kinases [11] = target: 468 kinases (Homo sapiens, UniProt Q02750); settings: MEK1; read-out: % Inhibition @ 100 nM
468 kinases [12] = target: 468 kinases (Homo sapiens, UniProt O14733); settings: MKK7; read-out: % Inhibition @ 100 nM
468 kinases [13] = target: 468 kinases (Homo sapiens, UniProt Q15831); settings: LKB1; read-out: % Inhibition @ 100 nM
468 kinases [14] = target: 468 kinases (Homo sapiens, UniProt P11802); settings: read-out: % Inhibition @ 100 nM
468 kinases [15] = target: 468 kinases (Homo sapiens, UniProt Q00532); settings: CDKL1; read-out: % Inhibition @ 100 nM
468 kinases [16] = target: 468 kinases (Homo sapiens, UniProt P51817); settings: PRKX; read-out: % Inhibition @ 100 nM
468 kinases [17] = target: 468 kinases (Homo sapiens, UniProt P45983); settings: JNK1; read-out: % Inhibition @ 100 nM
468 kinases [18] = target: 468 kinases (Homo sapiens, UniProt Q8N5S9); settings: CAMKK1; read-out: % Inhibition @ 100 nM
468 kinases [19] = target: 468 kinases (Homo sapiens, UniProt Q8NEB9); settings: VPS34; read-out: % Inhibition @ 100 nM
468 kinases [20] = target: 468 kinases (Homo sapiens, UniProt P49760); settings: CLK2; read-out: % Inhibition @ 100 nM
468 kinases [21] = target: 468 kinases (Homo sapiens, UniProt O15264); settings: p38-delta; read-out: % Inhibition @ 100 nM
468 kinases [22] = target: 468 kinases (Homo sapiens, UniProt P49761); settings: CLK3; read-out: % Inhibition @ 100 nM
468 kinases [23] = target: 468 kinases (Homo sapiens, UniProt O60674); settings: JAK2( JH1domain-catalytic); read-out: % Inhibition @ 100 nM
468 kinases [24] = target: 468 kinases (Homo sapiens, UniProt Q13873); settings: BMPR2; read-out: % Inhibition @ 100 nM
468 kinases [25] = target: 468 kinases (Homo sapiens, UniProt Q9H3Y6); settings: SRMS; read-out: % Inhibition @ 100 nM
468 kinases [26] = target: 468 kinases (Homo sapiens, UniProt P49336); settings: CDK8; read-out: % Inhibition @ 100 nM
468 kinases [27] = target: 468 kinases (Homo sapiens, UniProt Q00536); settings: PCTK1; read-out: % Inhibition @ 100 nM
468 kinases [28] = target: 468 kinases (Homo sapiens, UniProt P43405); settings: SYK; read-out: % Inhibition @ 100 nM
468 kinases [29] = target: 468 kinases (Homo sapiens, UniProt Q9BXA7); settings: TSSK1B; read-out: % Inhibition @ 100 nM
468 kinases [30] = target: 468 kinases (Homo sapiens, UniProt Q13043); settings: MST1; read-out: % Inhibition @ 100 nM
468 kinases [31] = target: 468 kinases (Homo sapiens, UniProt Q13557); settings: CAMK2D; read-out: % Inhibition @ 100 nM
468 kinases [32] = target: 468 kinases (Homo sapiens, UniProt P06241); settings: FYN; read-out: % Inhibition @ 100 nM
468 kinases [33] = target: 468 kinases (Homo sapiens, UniProt Q16539); settings: p38-alpha; read-out: % Inhibition @ 100 nM

SMILES	inhibition at 0.1 µM (468 kinases [1])	inhibition at 0.1 µM (468 kinases [2])	inhibition at 0.1 µM (468 kinases [3])	inhibition at 0.1 µM (468 kinases [4])	inhibition at 0.1 µM (468 kinases [5])	inhibition at 0.1 µM (468 kinases [6])	inhibition at 0.1 µM (468 kinases [7])	inhibition at 0.1 µM (468 kinases [8])	inhibition at 0.1 µM (468 kinases [9])	inhibition at 0.1 µM (468 kinases [10])	inhibition at 0.1 µM (468 kinases [11])	inhibition at 0.1 µM (468 kinases [12])	inhibition at 0.1 µM (468 kinases [13])	inhibition at 0.1 µM (468 kinases [14]; CDK4-cyclinD1)	inhibition at 0.1 µM (468 kinases [14]; CDK4-cyclinD3)	inhibition at 0.1 µM (468 kinases [14]; CDK4)	inhibition at 0.1 µM (468 kinases [15])	inhibition at 0.1 µM (468 kinases [16])	inhibition at 0.1 µM (468 kinases [17])	inhibition at 0.1 µM (468 kinases [18])	also measured
CCN(CC)CCNC(=O)c1c(C)[nH]c(/C=C2\C(=O)Nc3ccc(CCO)cc32)c1C [Compound No. 10, (Z)—N-(2-(Diethylamino)ethyl)-5-((5-(2-hydroxyethyl)-2-oxoindolin-3-ylidene)methyl)-2,4-dimethyl-1H-pyrrole-3-carboxamide]	52%	3%	0%	0%	22%	0%	91.8%	95.5%	95.5%	61%	64%	0%	31%	5%	0%	0%	31%	0%	9%	15%	inhibition at 0.1 µM (468 kinases [19]): 25%; inhibition at 0.1 µM (468 kinases [20]): 93.8%; inhibition at 0.1 µM (468 kinases [21]): 0%; inhibition at 0.1 µM (468 kinases [22]): 5%; inhibition at 0.1 µM (468 kinases [23]): 72%; inhibition at 0.1 µM (468 kinases [24]): 0%; inhibition at 0.1 µM (468 kinases [25]): 13%; inhibition at 0.1 µM (468 kinases [26]): 23%; inhibition at 0.1 µM (468 kinases [27]): 0%; inhibition at 0.1 µM (468 kinases [28]): 16%; inhibition at 0.1 µM (468 kinases [29]): 0%; inhibition at 0.1 µM (468 kinases [30]): 28%; inhibition at 0.1 µM (468 kinases [31]): 20%; inhibition at 0.1 µM (468 kinases [32]): 0%; inhibition at 0.1 µM (468 kinases [33]): 0%
CCN(CC)CCNC(=O)c1c(C)[nH]c(/C=C2\C(=O)Nc3ccc(CCC(N)=O)cc32)c1C [Compound No. 16, (Z)-5-((5-(3-Amino-3-oxopropyl)-2-oxoindolin-3-ylidene)methyl)-N-(2-(diethylamino)ethyl)-2,4-dimethyl-1H-pyrrole-3-carboxamide]	11%	10%	0%	0%	0%	34%	81%	97.4%	96.2%	83%	56%	17%	16%	29%	16%	9%	26%	9%	7%	28%	inhibition at 0.1 µM (468 kinases [19]): 46%; inhibition at 0.1 µM (468 kinases [20]): 100%; inhibition at 0.1 µM (468 kinases [21]): 0%; inhibition at 0.1 µM (468 kinases [22]): 10%; inhibition at 0.1 µM (468 kinases [23]): 76%; inhibition at 0.1 µM (468 kinases [24]): 50%; inhibition at 0.1 µM (468 kinases [25]): 27%; inhibition at 0.1 µM (468 kinases [26]): 15%; inhibition at 0.1 µM (468 kinases [27]): 19%; inhibition at 0.1 µM (468 kinases [28]): 0%; inhibition at 0.1 µM (468 kinases [29]): 4%; inhibition at 0.1 µM (468 kinases [30]): 0%; inhibition at 0.1 µM (468 kinases [31]): 4%; inhibition at 0.1 µM (468 kinases [32]): 95%; inhibition at 0.1 µM (468 kinases [33]): 0%

— patent US12435059B2, “AMP-activated protein kinase inhibitors and methods of making and using the same” (The Regents of the University of Colorado, priority 2019, dated 2025)
